Assay results from patent US9353152B2, “Induction of the mitochondrial permeability transition” (NewSouth Innovations Pty Limited, priority 2002, dated 2016).
Several values for one entry are separate records, joined by “and”; a condition that tells them apart may be missing. Identical values can stand only once.

How the values were obtained:
MPTP = target: T1, MPTP (Rattus norvegicus, UniProt Q09073); format: biochemical
T1 construct: Mitochondria were isolated from the livers of ˜250 g male Wistar rats; from tissue; host or cells: rat liver mitochondria (male Wistar rats)
T1 sequence (Q09073 2-298 limits assumed): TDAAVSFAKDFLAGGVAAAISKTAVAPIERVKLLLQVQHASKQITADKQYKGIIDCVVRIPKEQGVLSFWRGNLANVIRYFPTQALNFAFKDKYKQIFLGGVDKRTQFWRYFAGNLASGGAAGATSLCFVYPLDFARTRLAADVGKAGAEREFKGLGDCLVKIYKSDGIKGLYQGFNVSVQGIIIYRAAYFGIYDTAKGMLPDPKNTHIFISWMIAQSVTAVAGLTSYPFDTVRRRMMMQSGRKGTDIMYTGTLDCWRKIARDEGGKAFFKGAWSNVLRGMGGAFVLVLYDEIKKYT

[1] = Titration of arsenoxide compounds with DTT; format: physicochemical; details: GSAO versus Compound 1
[2] = target: T2, mitochondrial permeability transition pore (Rattus norvegicus, UniProt Q09073); format: biochemical; details: for a given concentration
T2 construct: Mitochondria were isolated from the livers of ˜250 g male Wistar rats; from tissue; host or cells: rat liver mitochondria (male Wistar rats)
T2 sequence (Q09073 2-298 limits assumed): T1 sequence (Q09073 2-298 limits assumed)

BAE cells [3] = test: Cell proliferation and viability assay (MTT); format: cell-based, bovine
Procedure: (§1) BAE or human pancreatic carcinoma BxPC-3 cells were seeded at a density of 10^3 cells per well into 96 well plates in DMEM containing 10% foetal bovine serum and allowed to adhere for 24 h. Cells were washed and incubated with DMEM containing 10% foetal bovine serum and GSAO or o-GSAO and cultured for a further 48 h. Some BAE cells were arrested for 24 h in medium containing 0.25% serum and cultured for a further 48 h in medium containing 0.25% or 10% serum, in the presence of GSAO or o-GSAO. Viable attached cells were determined using MTT.

[4] = test system: human pancreatic carcinoma BxPC-3 cells; test: Cell proliferation and viability assay (MTT); format: cell-based; details: Homo sapiens, BXPC-3; 10% serum, 48 h; read-out: IC50 for proliferation arrest of BxPC-3 cells
Procedure: as §1

[5] = Toxicity of o-GSAO in Balb-C mice; format: in vivo
Procedure: FIG. 22. Toxicity of o-GSAO. Balb-C mice (6-8 week old, 3 per group) were treated subcutaneously with 1 or 10 mg/kg/day of o-GSAO in 0.1 mL of PBS. The data points are the mean±SE of the mice weights.

[6] = Side-effects in Balb-C nude mice bearing BxPC-3 tumours; format: in vivo
Procedure: Female 7 to 9 week old Balb C nude were used (UNSW Biological Resource Centre). Mice were held in groups of 3 to 5 at a 12 h day and night cycle and were given animal chow and water ad libidum. A suspension of 2.5×10^6 BxPC-3 cells in 0.2 mL of PBS was injected subcutaneously in the proximal midline. Tumours were allowed to establish and grow to a size of ˜40 mm^3 after which they were randomised into four groups. Tumour volume was calculated using the relationship, a·b^2·0.52, where a is the longest and b the shortest diameter. Animals were treated with either GSAO or o-GSAO at a dose 1 or 10 mg/kg/day in 0.1 mL of PBS. The compounds were administered subcutaneously at a site distant from the tumour. Tumour volume and animal weight was measured every 2 or 3 days.
Balb-C nude mice bearing ˜40 mm^3 BxPC-3 tumours were randomised into four groups (n=10 or 11 per group) and treated subcutaneously with either GSAO (part A) or o-GSAO (part B) at 1 or 10 mg/kg/day in 0.1 mL of PBS. Parts C and D are the mice weights for the respective groups, where the arrow indicates start of treatment. The data points are the mean±SE of the tumour volumes or mice weights. Treatment with 10 mg/kg o-GSAO (part B) was stopped at day 14 due to necrosis and inflammation at sites of injection in 7 out of 11 mice (3/11 with severe ulcers, 4/11 with medium ulcers).

BAE cells [7] = test system: BAE cells
BAE cells [8] = test: cells; details: Bos taurus, read-out: IC50 (μM)*
ANT = target: T3, ANT (Rattus norvegicus, UniProt Q09073); test: Binding of GSAO-B to ANT (streptavidin pull-down, Western blot); details: 100 μM GSAO-B, 1 h; competed by 4-fold molar excess of dimercaptopropanol
T3 construct: Mitochondria were isolated from the livers of ˜250 g male Wistar rats; from tissue; host or cells: rat liver mitochondria (male Wistar rats)
T3 sequence (Q09073 2-298 limits assumed): T1 sequence (Q09073 2-298 limits assumed)
Procedure: Rat liver mitochondria were suspended at 1 mg of protein per mL at 25° C. in 3 mM HEPES-KOH, pH 7.0 buffer containing 213 mM mannitol, 71 mM sucrose and 10 mM sodium succinate and incubated with 100 μM GSAO-B in absence or presence of 400 μM 2,3-dimercaptopropanol (Fluka, Buchs, SG, Switzerland) at room temperature on a rotating wheel for 1 h. The labelled mitochondria were washed three times with PBS and sonicated in 0.3 mL of ice-cold 25 mM Tris, pH 7.4 buffer containing 140 mM NaCl, 2.7 mM KCl, 0.5% Triton X-100, 0.05% Tween-20, 10 μM leupeptin, 10 μM aprotinin, 50 μg·mL^−1 […] and 5 mM EDTA. Lysate was clarified by centrifugation at 18000 g for 10 min at 4° C. and incubated with 30 μL of streptavidin-dynabeads (Dynal, Oslo, Norway) for 60 min at 4° C. on a rotating wheel to isolate the biotin-labelled proteins. The beads were washed 5 times with sonication buffer and the biotin-labelled proteins were released from the beads by boiling in 30 μl of SDS-Laemmli buffer for 2 minutes. Samples were resolved on 8-16% gradient iGels under reducing conditions and transferred to PVDF membrane. Proteins were detected by Western blot using a 1:500 dilution of goat anti-human ANT polyclonal antibody (Santa Cruz Biotechnology, Santa Cruz, Calif.) and 1:2000 dilution of rabbit anti-goat peroxidase-conjugated antibodies (Dako, Carpinteria, Calif.).

[9] = 10 mg/kg/day o-GSAO s.c., day 14

## NC(CCC(=O)NC(CSCC(=O)Nc1ccccc1[As](O)O)C(=O)NCC(=O)O)C(=O)O (stereo not drawn) [Compound 1, NH2-Glu-Cys-(CH2CONH—C6H4-o-As{OH}2)-Gly-OH]
MPTP
  MPTP Swelling Rate Increase/GSAO* Mean: 16.3
[1]
  arsenical reactivity (titration with DTT): no significant difference
[2]
  half-time for maximal swelling, times faster compared to GSAO: 3-5 times
BAE cells [3]
  times more effective than GSAO at inhibiting proliferation of BAE cells: ~50 times
BAE cells [3]; 0.25% or 10% serum, 48 h
  selectivity for proliferating versus growth-quiescent endothelial cells: not selective for proliferating (angiogenic) endothelial cells
BAE cells [3]; Bos taurus, 10% serum, 48 h, read-out: IC50 for proliferation arrest of BAE cells
  IC50: 160 ± 30 nM
[4]
  IC50: ~2000 nM
[5]; 1 mg/kg/day s.c., day 1
  Side-effects of o-GSAO administration: nil
[5]; 1 mg/kg/day s.c., day 2
  Side-effects of o-GSAO administration: ruffled fur; mild hyperactivity^b
[5]; 1 mg/kg/day s.c., day 3
  Side-effects of o-GSAO administration: ruffled fur; mild hyperactivity^b
[5]; 1 mg/kg/day s.c., day 4
  Side-effects of o-GSAO administration: ruffled fur; mild hyperactivity^b
[5]; 1 mg/kg/day s.c., day 5
  Side-effects of o-GSAO administration: ruffled fur; hyperactivity; clonic
[5]; 1 mg/kg/day s.c., day 6
  Side-effects of o-GSAO administration: ruffled fur; hyperactivity; clonic
[5]; 1 mg/kg/day s.c., day 7
  Side-effects of o-GSAO administration: ruffled fur; hyperactivity; clonic
[5]; 1 mg/kg/day s.c., day 8
  Side-effects of o-GSAO administration: ruffled fur; hyperactivity^b
[5]; 1 mg/kg/day s.c., day 9
  Side-effects of o-GSAO administration: ruffled fur; mild hyperactivity^b
[5]; 1 mg/kg/day s.c., day 10
  Side-effects of o-GSAO administration: ruffled fur; mild hyperactivity^b
[5]; 1 mg/kg/day s.c., day 11
  Side-effects of o-GSAO administration: ruffled fur; mild hyperactivity^b
[5]; 1 mg/kg/day s.c., day 13
  Side-effects of o-GSAO administration: nil
[5]; 1 mg/kg/day s.c., day 14
  Side-effects of o-GSAO administration: nil
[5]; 10 mg/kg/day s.c., day 1
  Side-effects of o-GSAO administration: ruffled fur; hyperactivity; mild
[5]; 10 mg/kg/day s.c., day 2
  Side-effects of o-GSAO administration: ruffled fur; mild hyperactivity^b
[5]; 10 mg/kg/day s.c., day 3
  Side-effects of o-GSAO administration: ruffled fur; mild hyperactivity^b
[5]; 10 mg/kg/day s.c., day 4
  Side-effects of o-GSAO administration: ruffled fur; mild hyperactivity^b
[5]; 10 mg/kg/day s.c., day 5
  Side-effects of o-GSAO administration: ruffled fur; hyperactivity; clonic
[5]; 10 mg/kg/day s.c., day 6
  Side-effects of o-GSAO administration: ruffled fur; hyperactivity; clonic
[5]; 10 mg/kg/day s.c., day 7
  Side-effects of o-GSAO administration: ruffled fur; hyperactivity; clonic
[5]; 10 mg/kg/day s.c., day 8
  Side-effects of o-GSAO administration: ruffled fur; hyperactivity^b
[5]; 10 mg/kg/day s.c., day 9
  Side-effects of o-GSAO administration: ruffled fur; mild hyperactivity^b
[5]; 10 mg/kg/day s.c., day 10
  Side-effects of o-GSAO administration: ruffled fur; mild hyperactivity^b
[5]; 10 mg/kg/day s.c., day 11
  Side-effects of o-GSAO administration: ruffled fur; mild hyperactivity^b
[5]; 10 mg/kg/day s.c., day 13
  Side-effects of o-GSAO administration: skin necrosis at the injection site
[5]; 10 mg/kg/day s.c., day 14
  Side-effects of o-GSAO administration: skin necrosis at the injection site
[5]; 1 or 10 mg/kg/day s.c., Balb C mice
  weight loss: no weight loss observed
[5]; Balb C mice
  skin effects with repeated injections in the same area: thickening of the skin and occasional necrosis
[6]; 10 mg/kg/day o-GSAO s.c.
  weight loss: some weight loss
[6]; [9]
  mice with medium ulcers: 4/11
  mice with severe ulcers: 3/11
[6]; 10 mg/kg/day o-GSAO s.c., treatment stopped at day 14
  mice with necrosis and inflammation at sites of injection: 7 out of 11 and 7 of 11
[6]; 1 or 10 mg/kg/day s.c.
  behavioural side-effects in Balb C nude mice: not observed
BAE cells [7]
  Fold Increase: 53.2
BAE cells [8]
  IC50: 0.16 µM

## O=[As]c1ccc(NC(=O)CSC[C@H](NC(=O)CC[C@H](NC(=O)CCCCCNC(=O)CCCCCNC(=O)CCCC[C@@H]2SC[C@@H]3NC(=O)N[C@@H]32)C(=O)O)C(=O)NCC(=O)O)cc1 (stereo partly shown) [GSAO-B, 4-(N—(S—(N-(6-((6-((biotinoyl)amino)hexanoyl)amino)hexanoyl)-glutathionyl)acetyl)amino) phenylarsenoxide]
ANT
  labelling of ANT with GSAO-B: Direct interaction
